Several values for one entry are separate records, joined by “and”; a condition that tells them apart may be missing. Equal values may be shown once.
What was measured:
[1] = molecular target: T1, 3HA-tagged F508del-CFTR in BHK cells (Homo sapiens, UniProt P13569, DEL508-508); assay: CFTR trafficking assay (surface expression); type: cell-based, hamster; details: individual replicates
T1 construct: expressed in transfected cells; host or cells: baby hamster kidney (BHK) cells (Carlile et al. 2007)
T1 sequence (P13569 with tags, fused parts or gaps DEL508-508): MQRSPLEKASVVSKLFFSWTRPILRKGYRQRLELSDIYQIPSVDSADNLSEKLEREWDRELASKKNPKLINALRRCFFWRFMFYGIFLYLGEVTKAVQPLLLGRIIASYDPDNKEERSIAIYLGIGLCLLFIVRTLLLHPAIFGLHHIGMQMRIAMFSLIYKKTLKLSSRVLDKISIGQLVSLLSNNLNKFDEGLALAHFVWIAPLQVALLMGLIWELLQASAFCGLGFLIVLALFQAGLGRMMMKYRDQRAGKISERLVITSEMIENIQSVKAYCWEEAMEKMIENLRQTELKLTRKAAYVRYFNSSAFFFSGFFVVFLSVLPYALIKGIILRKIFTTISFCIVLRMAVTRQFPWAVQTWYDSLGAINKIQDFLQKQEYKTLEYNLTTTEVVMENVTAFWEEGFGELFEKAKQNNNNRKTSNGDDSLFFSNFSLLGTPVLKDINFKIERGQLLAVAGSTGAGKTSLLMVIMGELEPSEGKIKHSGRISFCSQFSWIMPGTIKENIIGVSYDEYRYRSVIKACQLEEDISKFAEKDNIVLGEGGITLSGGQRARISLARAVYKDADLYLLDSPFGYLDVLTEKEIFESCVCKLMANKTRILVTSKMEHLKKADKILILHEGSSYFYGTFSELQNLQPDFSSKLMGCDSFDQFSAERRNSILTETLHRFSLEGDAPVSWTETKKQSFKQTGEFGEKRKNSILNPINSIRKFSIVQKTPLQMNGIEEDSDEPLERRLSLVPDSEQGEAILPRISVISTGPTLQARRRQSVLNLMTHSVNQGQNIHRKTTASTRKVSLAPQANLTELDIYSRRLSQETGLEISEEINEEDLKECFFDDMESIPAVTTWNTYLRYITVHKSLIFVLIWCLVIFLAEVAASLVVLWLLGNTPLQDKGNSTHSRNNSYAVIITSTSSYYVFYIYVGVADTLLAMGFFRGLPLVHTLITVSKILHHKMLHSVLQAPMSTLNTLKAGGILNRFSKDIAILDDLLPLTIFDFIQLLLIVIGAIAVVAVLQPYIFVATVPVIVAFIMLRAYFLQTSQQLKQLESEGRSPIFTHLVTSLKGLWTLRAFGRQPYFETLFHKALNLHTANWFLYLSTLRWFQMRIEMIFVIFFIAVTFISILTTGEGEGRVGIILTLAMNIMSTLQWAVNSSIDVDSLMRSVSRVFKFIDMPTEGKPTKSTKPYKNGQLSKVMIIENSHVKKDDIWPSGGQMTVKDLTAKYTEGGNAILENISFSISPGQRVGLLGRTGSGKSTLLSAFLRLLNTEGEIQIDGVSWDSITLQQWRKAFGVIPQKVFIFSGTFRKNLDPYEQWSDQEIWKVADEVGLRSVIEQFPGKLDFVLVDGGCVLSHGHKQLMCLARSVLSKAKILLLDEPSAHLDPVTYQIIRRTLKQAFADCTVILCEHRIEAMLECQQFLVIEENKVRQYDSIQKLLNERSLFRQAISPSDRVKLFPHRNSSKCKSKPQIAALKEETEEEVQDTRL
Procedure: Twelve (12) validated hit compounds from the initial screening and focused validation library were tested for their effect on F508del-CFTR trafficking. Baby hamster kidney (BHK) cells expressing 3HA-tagged F508del-CFTR were treated for 24 h with 10 μM compound. After fixation of the cells, a combination of mouse monoclonal anti-HA antibody and anti-mouse IgG conjugated with FITC was used to detect F508del-CFTR that had trafficked to the plasma membrane as described previously. […] Additionally, a fluorescence imaging plate reader (FLIPR) Membrane Potential (FMP) assay was performed. This assay measures real-time membrane potential changes associated with ion channel activation and ion transporter proteins. F508del-CFTR expressing BHK cells were incubated for 24 h with 20 μM compound before treatment with the potentiator genistein, FMP dye, and activator forskolin. The fluorescence intensity is thus a measure for the function of the CFTR protein in the plasma membrane of these cells. The F508del-CFTR corrector VX-809 (lumacaftor) and the triple combination Trikafta® were used as positive controls in this assay. […] Another cellular assay was performed with the Ussing Chamber, which detects and quantifies transport of ions across epithelial tissue. F508del-CFTR expressing cystic fibrosis epithelial (CFBE) cells were treated for 18 h with 20 μM CY007424. After forskolin and genistein stimulation, the short-circuit current of the cells was measured.
Fig. 5 Cellular activity of macrocycles stabilizing the 14-3-3/CFTR PPI. a Surface expression of 3HA-tagged F508del-CFTR in BHK cells incubated for 24 h with 10 μM compound and treated with mouse monoclonal anti-HA antibody and anti-mouse IgG conjugated with FITC (n = 4 or n = 3 biological replicates, bars represent the mean). b, c FLIPR Membrane Potential (FMP) assay of F508del-CFTR expressing BHK cells treated for 24 h with the macrocycles (b, n = 6 biological replicates, bars represent the mean) or with CY007424 and/or VX-809 or Trikafta®, with and without CFTR inhibitor INH172 (c, n = 4 biological replicates, bars represent the mean). d Using chamber experiment of F508del-CFTR expressing CFBE cells treated for 18 h with CY007424, VX-809, or Trikafta® or in combinations. CFTR activity is assayed by measurement of short-circuit current of cells after stimulation by forskolin and the potentiator genistein (n = 3 or n = 6 biological replicates, bars represent the mean). Source data are provided as a Source Data file.
The trafficking assay was performed as previously described by Carlile et al.[21]. In brief, 3HA-tagged F508del-CFTR expressing baby hamster kidney (BHK) cells (cells earlier described by Carlile et. al. 2007)[21] were seeded in 96-well plates (Corning half area, black-sided, clear bottom) at 15,000 cells per well. After 24 h incubation at 37 °C, the cells were treated with 10 μM of compound for 24 h (final DMSO concentration 1% v/v). The cells were fixated with 4% paraformaldehyde, washed with PBS, and then blocked with fetal bovine serum (5% in PBS). Mouse monoclonal anti-HA antibody (H9658 Sigma, 1:150 dilution in PBS) was incubated overnight, and, after three washes with PBS, the background fluorescence was measured in a plate reader (488 nm excitation, 510 nm emission). The secondary antibody anti-mouse IgG conjugated with FITC (F5262 Sigma, 1:100 dilution in PBS) was incubated for 1 h, the cells were washed three times with PBS and analyzed in the plate reader again. Background fluorescence was subtracted from the signal, after which the signal was normalized to the DMSO control and wt-CFTR expressing cells.

[2] = molecular target: T2, FITC-labeled CFTRpS753pS768 peptide (no 14-3-3) (Homo sapiens, UniProt P13569); assay: Dose-response FP control assay in the absence of 14-3-3; type: binding; details: No 14-3-3
T2 construct: made in house; host or cells: synthetic peptide
T2 sequence (P13569 747-774 limits assumed): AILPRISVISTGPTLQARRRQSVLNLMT
Procedure: The 14-3-3β concentration used for the FP screening assay was 10 μM (dashed line). c HTS FP assay of the Cyclenium library. The samples contain 100 nM of FITC-CFTR_pS753pS768 peptide, 10 μM 14-3-3β, and 50 μM compound. FC-A (100 µM) was added as a positive control and DMSO as the negative control. Hit compounds are defined as a polarization increase which is higher than 20% of the response of FC-A. Red squares are compounds that appeared positive in the negative control without 14-3-3. […] Background polarization was subtracted from all values, n = 3 technical replicates. Compounds selected for further analysis are indicated with an asterisk. e Polarization in the absence of 14-3-3. […] Source data are provided as a Source Data file.
The FITC-labeled peptides were dissolved in FP buffer (10 mM HEPES pH 7.4, 150 mM NaCl, 0.1% Tween20, 1 mg/mL BSA) to a final concentration of 100 nM or 10 nM. For the dose-response assays, a 14-3-3β concentration of 10 μM was used while titrating the compounds in a two-times dilution series and, for the other assays, a dilution series of 14-3-3β was made with constant concentration of compound. The dilution series were made in 384 Corning Black Round Bottom well plates and their polarization was measured with a Tecan Infinite F500 plate reader (ex. = 485 nm, em. = 535 nm). The method of fitting of the curves was: “log(agonist) vs. response – Variable slope (four parameters)” from GraphPad Prism. The equation is Y = Bottom + (Top-Bottom)/(1 + 10^((LogEC50-X)*HillSlope)).

SMILES: N=C(N)NCCCC1NC(=O)C(CCC(N)=O)NC(=O)C(CCCNC(=N)N)NC(=O)C2Cc3ccccc3CN2Cc2cccc(c2)-c2ccccc2CNC1=O (stereo not drawn) [CY007493]
- F508del-CFTR surface expression signal (Fig5a) [1]: 225.716 and 325.901 and 303.406 and 383.168
- FP signal ([2]; compound 324.2 pM): 2
- FP signal ([2]; compound 648.5 pM): 1
- FP signal ([2]; compound 1.297e-9 M): 2
- FP signal ([2]; compound 2.59399e-9 M): 3
- FP signal ([2]; compound 5.18799e-9 M): 3
- FP signal ([2]; compound 1.0376e-8 M): 3
- FP signal ([2]; compound 2.0752e-8 M): 3
- FP signal ([2]; compound 4.15039e-8 M): 3
- FP signal ([2]; compound 8.30078e-8 M): 2
- FP signal ([2]; compound 1.66016e-7 M): 5
- FP signal ([2]; compound 3.32031e-7 M): 4
- FP signal ([2]; compound 6.64062e-7 M): 3
- FP signal ([2]; compound 1.32813e-6 M): 4
- FP signal ([2]; compound 2.65625e-6 M): 5
- FP signal ([2]; compound 5.3125e-6 M): 6
- FP signal ([2]; compound 1.0625e-5 M): 4
- FP signal ([2]; compound 2.125e-5 M): 10
- FP signal ([2]; compound 4.25e-5 M): 18
- FP signal ([2]; compound 8.5e-5 M): 37
- FP signal ([2]; compound 0.00034 M): 117
- FP signal ([2]; compound 0.00068 M): 184
- FP signal ([2]; compound […]): 71

SMILES: N=C(N)NCCCC1NC(=O)C(CCCCN)NCc2ccccc2Sc2ccccc2CNC(=O)C(Cc2ccc(O)cc2)NC1=O (stereo not drawn) [CY001951]
- F508del-CFTR surface expression signal (Fig5a) [1]: 85.2534 and 218.237 and 180.048 and 282.523
- FP signal ([2]; compound 476.8 pM): 3
- FP signal ([2]; compound 953.7 pM): 3
- FP signal ([2]; compound 1.90735e-9 M): 4
- FP signal ([2]; compound 3.8147e-9 M): 4
- FP signal ([2]; compound 7.6294e-9 M): 3
- FP signal ([2]; compound 1.52588e-8 M): 5
- FP signal ([2]; compound 3.05176e-8 M): 4
- FP signal ([2]; compound 6.10352e-8 M): 5
- FP signal ([2]; compound 1.2207e-7 M): 4
- FP signal ([2]; compound 2.44141e-7 M): 4
- FP signal ([2]; compound 4.88281e-7 M): 5
- FP signal ([2]; compound 9.76563e-7 M): 6
- FP signal ([2]; compound 1.95313e-6 M): 6
- FP signal ([2]; compound 3.90625e-6 M): 6
- FP signal ([2]; compound 7.8125e-6 M): 7
- FP signal ([2]; compound 1.5625e-5 M): 9
- FP signal ([2]; compound 3.125e-5 M): 16
- FP signal ([2]; compound 6.25e-5 M): 33
- FP signal ([2]; compound 0.000125 M): 73
- FP signal ([2]; compound 0.00025 M): 143
- FP signal ([2]; compound 0.0005 M): 201
- FP signal ([2]; compound 0.001 M): 252

SMILES: NCCCC1NCc2ccccc2Sc2ccccc2CNC(=O)C(Cc2c[nH]c3ccccc23)NC(=O)C(Cc2ccccc2)NC1=O (stereo not drawn) [CY007345]
- F508del-CFTR surface expression signal (Fig5a) [1]: -42.2555 and -20.6074 and 61.7766 and 72.7311
- FP signal ([2]; compound 476.8 pM): 5
- FP signal ([2]; compound 953.7 pM): 5
- FP signal ([2]; compound 1.90735e-9 M): 4
- FP signal ([2]; compound 3.8147e-9 M): 7
- FP signal ([2]; compound 7.6294e-9 M): 5
- FP signal ([2]; compound 1.52588e-8 M): 4
- FP signal ([2]; compound 3.05176e-8 M): 4
- FP signal ([2]; compound 6.10352e-8 M): 7
- FP signal ([2]; compound 1.2207e-7 M): 6
- FP signal ([2]; compound 2.44141e-7 M): 5
- FP signal ([2]; compound 4.88281e-7 M): 6
- FP signal ([2]; compound 9.76563e-7 M): 7
- FP signal ([2]; compound 1.95313e-6 M): 8
- FP signal ([2]; compound 3.90625e-6 M): 14
- FP signal ([2]; compound 7.8125e-6 M): 28
- FP signal ([2]; compound 1.5625e-5 M): 52
- FP signal ([2]; compound 3.125e-5 M): 90
- FP signal ([2]; compound 6.25e-5 M): 137
- FP signal ([2]; compound 0.000125 M): 191
- FP signal ([2]; compound 0.00025 M): 224
- FP signal ([2]; compound 0.0005 M): 238
- FP signal ([2]; compound 0.001 M): 248
